What was measured:
acne = assay: Study Volunteer experiences with oral taurine-magnesium treatment regimens; format: in vivo, human; settings: for Treatment Outcome: TAU 1500 mg/day, Mg 0
Text: The following non-limiting examples show Study Volunteer experiences with various taurine-magnesium treatment regimens. Volunteers were listed in the chronological order of the start of their taking full daily doses of taurine with magnesium.
Severity of acne was the following: Volunteers 1 and 2 had sporadic mild acne, Volunteers 3 and 4 had chronic cyclic mild acne, Volunteer 5 had chronic acne that appeared to be between mild and moderate, Volunteer 6 had chronic severe acne with scarring, Volunteer 7 had chronic moderate acne, Volunteer 8 had frequent mild acne, and Volunteer 9 had acne that appeared to be between mild and moderate.
The data provided in the Examples support the surprising conclusion that relatively high doses of taurine together with magnesium provide excellent treatment and in some cases prevention of mild to severe acne. […] As described in the Examples, some Volunteers, in addition to taking their recommended supplements of taurine and magnesium, for some weeks or months took other micronutrient supplements or even a multivitamin/mineral supplement containing an extra low dose of magnesium.

LXR-alpha = target: T1, LXR-alpha (Homo sapiens, UniProt Q13133); settings: liver cells in vitro; cited from earlier work
T1 construct: host or cells: liver cells in vitro
T1 sequence (Q13133 1-447): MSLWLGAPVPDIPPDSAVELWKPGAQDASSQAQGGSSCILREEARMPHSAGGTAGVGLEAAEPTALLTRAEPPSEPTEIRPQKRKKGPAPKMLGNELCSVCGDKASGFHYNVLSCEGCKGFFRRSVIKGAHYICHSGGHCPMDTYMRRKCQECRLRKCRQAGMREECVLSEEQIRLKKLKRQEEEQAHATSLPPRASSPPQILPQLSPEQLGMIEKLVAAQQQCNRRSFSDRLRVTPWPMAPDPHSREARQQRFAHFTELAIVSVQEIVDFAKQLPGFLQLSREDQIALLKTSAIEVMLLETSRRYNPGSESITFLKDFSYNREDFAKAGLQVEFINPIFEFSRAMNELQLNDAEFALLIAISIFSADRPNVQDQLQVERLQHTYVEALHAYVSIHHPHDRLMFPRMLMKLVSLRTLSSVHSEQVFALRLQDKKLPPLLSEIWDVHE

SMILES: NCCS(=O)(=O)O [taurine]
- Treatment Outcome (acne; Volunteer 2, mild acne with noticeable lesions, 5 days): No improvement
- Improvement of acne lesions (acne; Volunteer 2, taurine alone 1.5 g daily, 5 days): no improvement
- Treatment Outcome (acne; Volunteer 4, mild acne, break-out lesions with menstrual period, 7 days): Slight
- Improvement of acne (acne; Volunteer 4, taurine only, first week): slight improvement
- Cellular lipid levels (LXR-alpha): dose-dependent marked reduction
- LXR-alpha ligand activity / lipogenesis (LXR-alpha): ligand of LXR-alpha that inhibits lipogenesis
